Assay results published in patent publication US20170367588A1, “METHODS USING FACIAL TEMPERATURE TO EVALUATE POST-INGESTIVE IMPACT OF FOOD INGREDIENTS ON FAT OXIDATION” (NESTEC S.A., priority 2014, published 2017).
Entries after “also recorded” stand apart in the source; their conditions may differ.

What was measured:
hTRPA1 = target: T1, hTRPA1 (Homo sapiens, UniProt O75762); test: in vitro validation in cell lines expressing hTRPA1, calcium imaging; type: cell-based; settings: human TRPA1, in vitro, data not shown
T1 construct: expressed in transfected cells
Method: Treatment. All active TRP agonists were in 200 ml liquid tomato juice ([…]) at room temperature and served with a slice of bread. Placebo was 200 ml Commercial tomato juice. Active ingredients per 200 ml were 1 mg of Capsaicin (Spectrum chemicals), 0.2 ml of Givaudan cooling flavor (QB-113-979-5) or 70 mg of Cinnamaldehyde (Sigma). All ingredients were in vitro validated in cell lines expressing hTRPV1, hTRPA1 or hTRPM8 according to the calcium imaging method described in Riera et al, 2009 (FIG. 2). The objective of this trial was to assess if the stimulation of TRPA1 and TRPM8 pathways could be as efficient at impacting the energy balance as is the simulation of TRPV1 by capsaicin or capsiate. Based on the literature, we selected the most representative TRPA1 agonist: cinnamaldehyde activating specifically the mouse variant of TRPA1 with an EC50 of 60 μM, its specificity on the human form of the receptor has been confirmed in vitro (data not shown). In order to identify an efficient and specific agonist of hTRPM8, different ingredients with cooling properties have been evaluated in vitro. A cooling flavor (CF) provided by Givaudan, activating specifically hTRPM8 with an EC50 of 0.07% (FIG. 2) has been selected. As a positive control, capsaicin was evaluated in parallel to cinnamaldehyde and CF in this trial.

mouse variant of TRPA1 = mouse variant of TRPA1 (Mus musculus, UniProt Q8BLA8); settings: mouse variant of TRPA1, based on the literature; cited from earlier work
[1] = clinical trial, facial thermography with infrared camera; type: in vivo, human; parameters: AUC Difference of the temperature vs placebo: unit not given beside the values; settings: for nose temperature after intake: Zone-2 (nose), over the 15 minutes post-ingestion, FIG. 4A; for cheek temperature after intake: Zone-12 (cheeks), immediately after intake, FIG. 4B
Method: Participants. Participants were healthy men with 19<BMI<25 and 60 kg minimum body weight. The age was in the 20-50 range. Participants had to like spicy food but are moderate spicy food eaters. Screening of candidates was done through a questionnaire on spicy food habits. The clinical trial we approved by a competent ethics committee (Commission cantonale (VD) d'Etique pour recherché sur l'Etre Humain) and participants gave their written informed consent. This trial was conducted according to the principles and rules laid down in the Declaration of Helsinki and its subsequent amendments.
The presented study was a double-blinded, balanced, randomized, cross-over, placebo-controlled clinical trial. For each measure, the subjects had tested after an over-night fast. They had been requested to use their car or public transportation to come to the investigation site in order to keep morning physical activity level as low as possible. Moreover, consumption of caffeine was not permitted after the lunch meal (12 p.m.) before each session, and participants had been asked to refrain their spice consumption for two days prior each session. Each sample was evaluated in two different sessions A and B, with the same design but different recordings (FIG. 1A).
Each session started at 8:00 a.m. with a 30 minutes rest period and measurement preparation. During all the testing sessions, subjects were seated comfortably. Room temperature was in the 20 to 22° C. range. Subjects were instructed to remain quiet and still, but they were allowed to watch TV. Parameters were recorded 30 minutes before and 90 minutes after ingestion of each sample (FIG. 1A).
Treatment. All active TRP agonists were in 200 ml liquid tomato juice (Granini) at room temperature and served with a slice of bread. Placebo was 200 ml Commercial tomato juice. Active ingredients per 200 ml were 1 mg of Capsaicin (Spectrum chemicals), 0.2 ml of Givaudan cooling flavor (QB-113-979-5) or 70 mg of Cinnamaldehyde (Sigma). All ingredients were in vitro validated in cell lines expressing hTRPV1, hTRPA1 or hTRPM8 according to the calcium imaging method described in Riera et al, 2009 (FIG. 2).
Facial thermography. In this study, infrared thermal imaging of the face has been used as an exploratory, non-invasive recording method of sympathetic nervous system activity. Using a FLIR A325 infrared camera (FLIR Systems, Inc) subjects were continuously recorded at a distance of ˜1 m. They were comfortably installed in a chair with the head maintained fixed on a chin-rest support, to facilitate the further image analysis. Room temperature was in the 20 to 22° C. range. The camera FLIR A325 is equipped with a 25° lens, resolution is 320×240 pixels, and sensitivity is 0.05° C. and accuracy±2° C. The recording was performed by acquiring 1 image/second. Thermographic imaging software, FLIR ResearchIR is used to acquire images.
Facial thermography data were extracted using in-home algorithms developed within the Matlab framework (The Mathworks Inc., Natick, Mass., USA). First, a graphical user interface (GUI) was created to help defining manually a temperature threshold highlighting primarily subject's faces. An alignment of the face was then computed and twelve regions of interest (ROIs) drawn manually using the GUI (FIG. 1B). Face alignment/orientation correction was computed image by image by first creating a binary mask using the manually set temperature threshold. Holes in the binary mask were filled and the region with the greatest continuous area was selected. The selected region centroid was determined using the built-in Matlab region properties tool (regionprops). With the same tool, an ellipse was fitted within the region to obtain the angular orientation of the ellipse's major axis compared to the x-axis. […]

[2] = clinical trial, indirect calorimetry (energy expenditure and substrate oxidation); type: in vivo, human; settings: for energy expenditure compared to placebo / fat oxidation compared to placebo: healthy men, time standardized AUC after ingestion; for energy expenditure compared to placebo: single ingestion in 200 ml tomato juice (1 mg capsaicin, 70 mg cinnamaldehyde, 200 μl CF); for fat oxidation compared to placebo: single ingestion in 200 ml tomato juice; for higher post-prandial fat oxidation compared to placebo, magnitude: over the period of the experiment (90 min), capsaicin 1 mg/200 ml, cinnamaldehyde 70 mg/200 ml
Method: Participants. Participants were healthy men with 19<BMI<25 and 60 kg minimum body weight. The age was in the 20-50 range. Participants had to like spicy food but are moderate spicy food eaters. Screening of candidates was done through a questionnaire on spicy food habits. The clinical trial we approved by a competent ethics committee (Commission cantonale (VD) d'Etique pour recherché sur l'Etre Humain) and participants gave their written informed consent. This trial was conducted according to the principles and rules laid down in the Declaration of Helsinki and its subsequent amendments. The presented study was a double-blinded, balanced, randomized, cross-over, placebo-controlled clinical trial. For each measure, the subjects had tested after an over-night fast. They had been requested to use their car or public transportation to come to the investigation site in order to keep morning physical activity level as low as possible. Moreover, consumption of caffeine was not permitted after the lunch meal (12 p.m.) before each session, and participants had been asked to refrain their spice consumption for two days prior each session. Each sample was evaluated in two different sessions A and B, with the same design but different recordings (FIG. 1A). Each session started at 8:00 a.m. with a 30 minutes rest period and measurement preparation. During all the testing sessions, subjects were seated comfortably. Room temperature was in the 20 to 22° C. range. Subjects were instructed to remain quiet and still, but they were allowed to watch TV. Parameters were recorded 30 minutes before and 90 minutes after ingestion of each sample (FIG. 1A). Treatment. All active TRP agonists were in 200 ml liquid tomato juice ([…]) at room temperature and served with a slice of bread. Placebo was 200 ml Commercial tomato juice. Active ingredients per 200 ml were 1 mg of Capsaicin (Spectrum chemicals), 0.2 ml of Givaudan cooling flavor (QB-113-979-5) or 70 mg of Cinnamaldehyde (Sigma). All ingredients were in vitro validated in cell lines expressing hTRPV1, hTRPA1 or hTRPM8 according to the calcium imaging method described in Riera et al, 2009 (FIG. 2). Energy expenditure was measured using indirect calorimetry. Indirect calorimetry is a measure of respiratory gas exchange (oxygen consumption and carbon dioxide production), which estimates the amount of calories “burned.” This measurement was performed with the MAX-II device (Max II metabolic system, AEI technologies, Naperville, Ill., USA). The equation used by the MAX-II device to evaluate energy expenditure is the simplified Weir formula: REE=(3.941×VO2)+(1.106×VCO2), where: After answering questions from the compliance questionnaire, participants were comfortably installed in semi-recumbent position in a reclining bed, at an angle allowing the participant to ingest the test solution without having to adjust position between metabolic rate measurement periods and treatment ingestion. A canopy was installed over participant's head. Test started 08:30 a.m. following a stabilization period allowing FeCO2 values to reach physiologic range. Substrate oxidation (carbohydrates and fat utilization) and the respiratory quotient (RQ) were calculated using the VO2 and VCO2 values obtained from the MAX-II device during the same timeline than energy expenditure. VO2 and VCO2 values were corrected for protein oxidation. The following equations were used to calculate the amount of fat and carbohydrates oxidized (Dietary Reference Intakes for Energy, Carbohydrate, Fiber, Fat, Fatty Acids, Cholesterol, Protein, and Amino Acids (Macronutrients) (2002/2005) National Academies Press, pp. 633-645): All endpoints have been analyzed using a linear mixed model to take into account the correlation between repeated measures. […]

[3] = literature (Ludy et al. 2011); cited from earlier work
[4] = Zone 1, all period post ingestion
[5] = Zone 2 (nose), all period post ingestion
[6] = Zone 3, all period post ingestion
[7] = Zone 4, all period post ingestion
[8] = Zone 5, all period post ingestion
[9] = Zone 6, all period post ingestion
[10] = Zone 7, all period post ingestion
[11] = Zone 8, all period post ingestion
[12] = Zone 9, all period post ingestion
[13] = Zone 10 (chin), all period post ingestion
[14] = Zone 11, all period post ingestion
[15] = Zone 12 (cheeks), all period post ingestion

T1 sequence (O75762 whole entry): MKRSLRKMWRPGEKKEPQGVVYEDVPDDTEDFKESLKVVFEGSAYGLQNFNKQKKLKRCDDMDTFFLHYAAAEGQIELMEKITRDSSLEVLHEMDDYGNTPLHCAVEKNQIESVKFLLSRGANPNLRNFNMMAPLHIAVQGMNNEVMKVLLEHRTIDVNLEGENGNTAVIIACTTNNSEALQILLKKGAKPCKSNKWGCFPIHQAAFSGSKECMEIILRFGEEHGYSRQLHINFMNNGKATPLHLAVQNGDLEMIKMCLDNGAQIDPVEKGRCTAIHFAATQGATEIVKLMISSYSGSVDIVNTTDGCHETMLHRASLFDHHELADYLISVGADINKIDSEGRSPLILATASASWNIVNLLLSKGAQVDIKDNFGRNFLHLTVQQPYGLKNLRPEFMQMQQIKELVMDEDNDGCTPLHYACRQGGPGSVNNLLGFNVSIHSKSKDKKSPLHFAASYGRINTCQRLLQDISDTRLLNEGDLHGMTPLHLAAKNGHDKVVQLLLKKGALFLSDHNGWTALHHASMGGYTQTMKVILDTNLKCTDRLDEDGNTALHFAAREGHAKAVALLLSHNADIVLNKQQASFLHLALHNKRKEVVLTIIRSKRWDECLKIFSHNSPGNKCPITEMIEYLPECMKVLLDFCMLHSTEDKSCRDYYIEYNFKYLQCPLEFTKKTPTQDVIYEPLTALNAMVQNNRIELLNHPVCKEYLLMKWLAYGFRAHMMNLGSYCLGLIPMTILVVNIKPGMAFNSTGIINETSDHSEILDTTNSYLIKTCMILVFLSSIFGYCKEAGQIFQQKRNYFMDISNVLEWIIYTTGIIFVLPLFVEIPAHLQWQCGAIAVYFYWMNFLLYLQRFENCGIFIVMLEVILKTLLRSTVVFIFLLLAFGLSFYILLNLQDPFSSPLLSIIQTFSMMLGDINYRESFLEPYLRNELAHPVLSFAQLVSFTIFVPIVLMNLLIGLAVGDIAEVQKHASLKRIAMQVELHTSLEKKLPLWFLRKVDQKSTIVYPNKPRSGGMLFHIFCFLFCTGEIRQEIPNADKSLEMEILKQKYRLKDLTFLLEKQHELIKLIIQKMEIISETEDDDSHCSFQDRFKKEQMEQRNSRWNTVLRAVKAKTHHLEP

Row | SMILES | AUC Difference of the temperature vs placebo [1, 4] | AUC Difference of the temperature vs placebo [1, 5] | AUC Difference of the temperature vs placebo [1, 6] | AUC Difference of the temperature vs placebo [1, 7] | AUC Difference of the temperature vs placebo [1, 8] | AUC Difference of the temperature vs placebo [1, 9] | AUC Difference of the temperature vs placebo [1, 10] | AUC Difference of the temperature vs placebo [1, 11] | AUC Difference of the temperature vs placebo [1, 12] | AUC Difference of the temperature vs placebo [1, 13] | AUC Difference of the temperature vs placebo [1, 14] | AUC Difference of the temperature vs placebo [1, 15] | nose temperature after intake [1] | energy expenditure compared to placebo [2] | fat oxidation compared to placebo [2] | higher post-prandial fat oxidation compared to placebo, magnitude [2] | other results
1 | O=CC=Cc1ccccc1 [cinnamaldehyde] | 22.396 | 42.064 | 30.816 | 22.118 | 14.065 | 21.144 | 18.856 | 18.384 | 18.947 | 34.072 | 18.237 | 26.571 | significant increase; also recorded: increase nose temperature | increases energy expenditure | higher level of fat oxidation | ~512.7 mg | specificity on the human form of the receptor (hTRPA1): confirmed; EC50 (mouse variant of TRPA1): 60 µM; chin temperature compared to placebo ([1]; Zone-10 (chin), prolonged time after ingestion, adjusted p-value 0.0486): increases chin temperature; cheek temperature after intake [1]: increases unilaterally cheek temperature; cheek temperature after intake ([1]; listed as Cinnamaldehyde): increased temperature
2 | COc1cc(CNC(=O)CCCC/C=C/C(C)C)ccc1O [capsaicin] | 18.584 | 54.439 | 16.959 | 14.893 | 8.126 | 13.186 | 9.255 | 12.469 | 26.056 | 25.26 | 3.299 | 22.575 | significant increase; also recorded: increase nose temperature | no significant differences | higher level of fat oxidation | about 556.2 mg | efficient doses for increasing energy expenditure and fat oxidation [3]: ≥ 20 mg
